Legend:
[1] = biological target: T1, Alpha-1A adrenergic receptor (Homo sapiens, UniProt P35348); type: functional, cell-based
T1 sequence (P35348 whole entry): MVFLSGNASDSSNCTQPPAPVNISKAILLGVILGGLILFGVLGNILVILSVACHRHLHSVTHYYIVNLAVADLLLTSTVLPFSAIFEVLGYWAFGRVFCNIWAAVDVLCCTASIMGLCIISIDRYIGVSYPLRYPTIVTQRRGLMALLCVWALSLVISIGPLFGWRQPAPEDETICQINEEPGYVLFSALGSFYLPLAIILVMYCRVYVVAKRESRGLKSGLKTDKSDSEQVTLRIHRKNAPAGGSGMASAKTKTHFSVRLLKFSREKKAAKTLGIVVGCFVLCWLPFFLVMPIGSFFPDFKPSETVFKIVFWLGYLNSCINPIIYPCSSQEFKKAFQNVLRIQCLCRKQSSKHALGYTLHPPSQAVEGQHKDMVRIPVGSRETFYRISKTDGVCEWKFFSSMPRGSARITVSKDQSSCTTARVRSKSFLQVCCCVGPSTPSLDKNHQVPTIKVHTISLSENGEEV

[2] = biological target: Cannabinoid receptor 1 (Homo sapiens, UniProt P21554); type: functional, cell-based
[3] = biological target: 5-hydroxytryptamine receptor 2B (Homo sapiens, UniProt P41595); type: functional, cell-based
[4] = biological target: T2, Muscarinic acetylcholine receptor M1 (Homo sapiens, UniProt P11229); type: functional
T2 sequence (P11229 whole entry): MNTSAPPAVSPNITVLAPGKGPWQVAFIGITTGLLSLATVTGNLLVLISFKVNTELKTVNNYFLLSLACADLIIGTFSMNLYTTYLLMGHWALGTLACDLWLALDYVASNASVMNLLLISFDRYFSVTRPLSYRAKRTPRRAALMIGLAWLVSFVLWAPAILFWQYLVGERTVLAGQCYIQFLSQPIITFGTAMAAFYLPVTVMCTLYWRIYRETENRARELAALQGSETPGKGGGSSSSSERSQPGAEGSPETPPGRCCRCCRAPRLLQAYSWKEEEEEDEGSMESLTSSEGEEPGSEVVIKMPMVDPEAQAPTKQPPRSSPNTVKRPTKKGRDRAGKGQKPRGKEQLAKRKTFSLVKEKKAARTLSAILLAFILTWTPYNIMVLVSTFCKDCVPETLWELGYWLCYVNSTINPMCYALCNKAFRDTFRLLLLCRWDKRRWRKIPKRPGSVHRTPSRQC

[5] = biological target: T3, 5-hydroxytryptamine receptor 2C (Homo sapiens, UniProt P28335)
T3 sequence (P28335 whole entry): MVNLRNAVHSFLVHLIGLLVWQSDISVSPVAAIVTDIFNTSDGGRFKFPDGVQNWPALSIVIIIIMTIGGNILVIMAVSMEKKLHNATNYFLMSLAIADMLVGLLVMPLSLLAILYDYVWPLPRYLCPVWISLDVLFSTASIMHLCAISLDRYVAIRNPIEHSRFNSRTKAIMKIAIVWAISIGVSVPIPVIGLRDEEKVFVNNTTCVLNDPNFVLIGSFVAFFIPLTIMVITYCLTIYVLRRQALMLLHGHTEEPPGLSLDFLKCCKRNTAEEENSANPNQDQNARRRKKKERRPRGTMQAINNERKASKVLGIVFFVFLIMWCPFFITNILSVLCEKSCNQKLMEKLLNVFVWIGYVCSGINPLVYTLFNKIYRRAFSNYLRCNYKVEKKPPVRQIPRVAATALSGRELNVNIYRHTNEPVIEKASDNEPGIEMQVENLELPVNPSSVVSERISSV

[6] = biological target: T4, 5-hydroxytryptamine receptor 1A (Homo sapiens, UniProt P08908); type: functional, cell-based
T4 sequence (P08908 whole entry): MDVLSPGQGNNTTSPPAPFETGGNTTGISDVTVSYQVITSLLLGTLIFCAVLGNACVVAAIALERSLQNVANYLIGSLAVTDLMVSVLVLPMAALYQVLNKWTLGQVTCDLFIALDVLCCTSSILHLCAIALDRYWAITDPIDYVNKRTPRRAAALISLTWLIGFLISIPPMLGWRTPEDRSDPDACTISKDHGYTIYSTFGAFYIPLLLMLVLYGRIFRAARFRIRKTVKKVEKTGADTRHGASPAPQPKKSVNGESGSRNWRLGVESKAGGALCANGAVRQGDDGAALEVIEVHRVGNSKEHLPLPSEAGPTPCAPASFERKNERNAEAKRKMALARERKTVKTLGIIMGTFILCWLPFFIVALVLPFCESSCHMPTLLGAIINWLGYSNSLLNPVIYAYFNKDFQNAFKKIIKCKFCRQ

[7] = biological target: T4, 5-hydroxytryptamine receptor 1A; type: functional, cell-based; remark: listed apart in the source
[8] = biological target: Sodium-dependent noradrenaline transporter (Homo sapiens, UniProt P23975)
[9] = biological target: Melanocortin receptor 3 (Homo sapiens, UniProt P41968)
[10] = biological target: cGMP-inhibited 3',5'-cyclic phosphodiesterase 3A (Homo sapiens, UniProt Q14432); type: functional
[11] = biological target: Voltage-dependent L-type calcium channel subunit alpha-1C (Rattus norvegicus, UniProt P22002); type: functional
[12] = biological target: T5, Gastrin/cholecystokinin type B receptor (Homo sapiens, UniProt P32239)
T5 sequence (P32239 whole entry): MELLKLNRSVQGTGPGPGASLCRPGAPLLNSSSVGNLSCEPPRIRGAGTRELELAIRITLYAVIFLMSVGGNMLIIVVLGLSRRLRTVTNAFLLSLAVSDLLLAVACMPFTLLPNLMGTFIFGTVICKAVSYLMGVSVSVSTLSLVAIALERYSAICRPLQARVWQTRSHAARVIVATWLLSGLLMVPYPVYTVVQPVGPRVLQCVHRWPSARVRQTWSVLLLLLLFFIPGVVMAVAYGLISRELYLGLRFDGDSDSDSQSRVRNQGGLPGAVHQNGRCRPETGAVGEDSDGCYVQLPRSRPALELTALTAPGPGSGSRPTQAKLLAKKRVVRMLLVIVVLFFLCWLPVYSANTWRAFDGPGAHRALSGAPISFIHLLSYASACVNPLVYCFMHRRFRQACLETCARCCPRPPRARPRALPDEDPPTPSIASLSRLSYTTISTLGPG

[13] = biological target: Histamine H2 receptor (Homo sapiens, UniProt P25021); type: functional, cell-based
[14] = biological target: Kappa-type opioid receptor (Homo sapiens, UniProt P41145)
Note: assay procedure not described here.

Voltage-dependent L-type calcium channel subunit alpha-1C, sequence (P22002 whole entry): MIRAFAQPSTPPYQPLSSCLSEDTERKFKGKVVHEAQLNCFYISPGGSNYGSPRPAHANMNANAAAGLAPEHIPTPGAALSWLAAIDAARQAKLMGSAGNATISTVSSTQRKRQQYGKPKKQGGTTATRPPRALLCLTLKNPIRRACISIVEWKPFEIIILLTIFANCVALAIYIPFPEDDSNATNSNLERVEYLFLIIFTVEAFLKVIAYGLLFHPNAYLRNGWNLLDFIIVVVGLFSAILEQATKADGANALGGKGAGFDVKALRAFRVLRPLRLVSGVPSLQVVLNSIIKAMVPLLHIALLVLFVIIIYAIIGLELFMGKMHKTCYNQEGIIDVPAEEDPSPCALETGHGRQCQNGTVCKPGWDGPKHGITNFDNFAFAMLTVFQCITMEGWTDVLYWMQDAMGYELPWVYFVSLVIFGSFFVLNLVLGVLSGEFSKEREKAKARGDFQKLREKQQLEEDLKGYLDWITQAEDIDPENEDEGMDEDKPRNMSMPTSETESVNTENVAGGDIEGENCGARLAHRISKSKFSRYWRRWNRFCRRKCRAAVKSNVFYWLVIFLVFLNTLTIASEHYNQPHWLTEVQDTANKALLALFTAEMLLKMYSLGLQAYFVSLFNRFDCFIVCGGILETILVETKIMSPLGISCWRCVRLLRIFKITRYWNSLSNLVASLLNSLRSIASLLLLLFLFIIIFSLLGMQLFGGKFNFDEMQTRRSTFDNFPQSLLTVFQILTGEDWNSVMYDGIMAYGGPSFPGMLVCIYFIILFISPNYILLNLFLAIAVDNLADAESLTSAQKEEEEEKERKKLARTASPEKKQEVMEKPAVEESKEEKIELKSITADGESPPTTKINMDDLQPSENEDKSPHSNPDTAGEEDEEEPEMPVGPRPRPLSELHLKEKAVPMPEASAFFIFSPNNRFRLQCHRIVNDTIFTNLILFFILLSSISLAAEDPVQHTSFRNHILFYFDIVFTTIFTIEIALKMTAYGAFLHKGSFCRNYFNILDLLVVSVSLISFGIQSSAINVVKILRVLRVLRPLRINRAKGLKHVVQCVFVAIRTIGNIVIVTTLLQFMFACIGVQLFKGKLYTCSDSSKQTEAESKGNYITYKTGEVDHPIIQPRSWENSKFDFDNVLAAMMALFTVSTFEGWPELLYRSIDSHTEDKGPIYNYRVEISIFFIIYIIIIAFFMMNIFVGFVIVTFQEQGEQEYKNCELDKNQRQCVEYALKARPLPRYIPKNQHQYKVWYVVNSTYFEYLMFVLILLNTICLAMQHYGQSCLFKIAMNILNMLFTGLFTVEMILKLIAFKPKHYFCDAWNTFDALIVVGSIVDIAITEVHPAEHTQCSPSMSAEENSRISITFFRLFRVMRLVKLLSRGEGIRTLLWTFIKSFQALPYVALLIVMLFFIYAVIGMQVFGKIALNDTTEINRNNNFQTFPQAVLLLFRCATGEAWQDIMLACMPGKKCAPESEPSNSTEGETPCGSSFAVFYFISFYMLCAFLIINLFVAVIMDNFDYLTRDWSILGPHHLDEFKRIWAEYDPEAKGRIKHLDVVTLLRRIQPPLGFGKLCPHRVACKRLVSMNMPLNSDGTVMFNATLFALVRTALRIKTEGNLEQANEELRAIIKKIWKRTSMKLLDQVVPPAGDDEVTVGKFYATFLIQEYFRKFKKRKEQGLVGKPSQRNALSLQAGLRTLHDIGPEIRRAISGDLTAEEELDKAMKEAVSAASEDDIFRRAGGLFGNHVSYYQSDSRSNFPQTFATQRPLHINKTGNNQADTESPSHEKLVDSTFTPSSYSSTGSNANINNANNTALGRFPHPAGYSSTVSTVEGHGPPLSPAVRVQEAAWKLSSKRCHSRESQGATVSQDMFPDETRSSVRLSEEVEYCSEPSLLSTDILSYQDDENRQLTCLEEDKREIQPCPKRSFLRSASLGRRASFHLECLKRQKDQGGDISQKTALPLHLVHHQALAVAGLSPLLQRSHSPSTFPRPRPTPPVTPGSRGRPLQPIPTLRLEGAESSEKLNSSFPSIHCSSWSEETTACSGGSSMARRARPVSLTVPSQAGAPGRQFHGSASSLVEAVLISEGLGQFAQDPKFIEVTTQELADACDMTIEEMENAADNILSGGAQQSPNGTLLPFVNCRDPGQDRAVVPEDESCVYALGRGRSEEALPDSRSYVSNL
cGMP-inhibited 3',5'-cyclic phosphodiesterase 3A, sequence (Q14432 whole entry): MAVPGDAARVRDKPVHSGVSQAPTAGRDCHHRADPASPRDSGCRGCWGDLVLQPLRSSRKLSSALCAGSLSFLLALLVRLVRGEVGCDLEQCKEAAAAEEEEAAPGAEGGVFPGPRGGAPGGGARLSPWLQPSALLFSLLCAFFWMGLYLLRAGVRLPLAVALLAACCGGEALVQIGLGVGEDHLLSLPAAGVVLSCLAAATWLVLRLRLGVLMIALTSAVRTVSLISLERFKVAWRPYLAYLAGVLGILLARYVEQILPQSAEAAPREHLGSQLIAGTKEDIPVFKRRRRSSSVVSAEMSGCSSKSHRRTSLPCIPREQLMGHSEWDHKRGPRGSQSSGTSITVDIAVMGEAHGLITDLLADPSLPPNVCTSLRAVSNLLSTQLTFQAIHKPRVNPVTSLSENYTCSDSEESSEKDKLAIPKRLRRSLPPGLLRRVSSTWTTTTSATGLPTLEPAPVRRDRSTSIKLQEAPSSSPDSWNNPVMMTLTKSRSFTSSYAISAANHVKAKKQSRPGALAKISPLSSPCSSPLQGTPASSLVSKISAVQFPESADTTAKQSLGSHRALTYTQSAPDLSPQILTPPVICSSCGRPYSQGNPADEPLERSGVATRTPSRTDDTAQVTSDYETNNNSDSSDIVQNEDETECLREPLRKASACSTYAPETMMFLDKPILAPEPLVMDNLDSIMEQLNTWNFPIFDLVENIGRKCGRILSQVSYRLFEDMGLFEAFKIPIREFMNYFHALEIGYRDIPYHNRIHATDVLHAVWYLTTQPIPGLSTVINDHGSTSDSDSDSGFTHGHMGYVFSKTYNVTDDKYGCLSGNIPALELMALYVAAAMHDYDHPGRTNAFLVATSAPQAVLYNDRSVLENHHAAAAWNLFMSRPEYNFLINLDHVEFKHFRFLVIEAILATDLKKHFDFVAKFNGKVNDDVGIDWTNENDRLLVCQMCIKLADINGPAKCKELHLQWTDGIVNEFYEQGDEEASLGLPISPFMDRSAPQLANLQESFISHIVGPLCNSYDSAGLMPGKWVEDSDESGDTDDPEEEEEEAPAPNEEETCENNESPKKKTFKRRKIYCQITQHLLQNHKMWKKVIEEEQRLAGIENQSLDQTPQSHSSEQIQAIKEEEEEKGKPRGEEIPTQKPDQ
Cannabinoid receptor 1, sequence (P21554 whole entry): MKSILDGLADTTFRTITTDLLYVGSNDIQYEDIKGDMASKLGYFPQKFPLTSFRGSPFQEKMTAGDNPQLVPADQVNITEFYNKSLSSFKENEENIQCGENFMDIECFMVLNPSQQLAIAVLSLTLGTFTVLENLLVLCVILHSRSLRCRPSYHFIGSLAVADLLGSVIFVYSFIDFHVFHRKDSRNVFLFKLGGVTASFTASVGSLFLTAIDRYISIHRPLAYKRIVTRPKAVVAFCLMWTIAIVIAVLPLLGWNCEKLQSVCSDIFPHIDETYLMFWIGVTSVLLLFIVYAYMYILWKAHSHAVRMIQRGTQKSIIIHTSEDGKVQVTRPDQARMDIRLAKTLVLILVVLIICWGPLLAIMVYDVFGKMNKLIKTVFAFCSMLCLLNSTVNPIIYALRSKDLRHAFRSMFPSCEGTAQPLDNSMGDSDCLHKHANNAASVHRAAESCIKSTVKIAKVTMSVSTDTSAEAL
Sodium-dependent noradrenaline transporter, sequence (P23975 whole entry): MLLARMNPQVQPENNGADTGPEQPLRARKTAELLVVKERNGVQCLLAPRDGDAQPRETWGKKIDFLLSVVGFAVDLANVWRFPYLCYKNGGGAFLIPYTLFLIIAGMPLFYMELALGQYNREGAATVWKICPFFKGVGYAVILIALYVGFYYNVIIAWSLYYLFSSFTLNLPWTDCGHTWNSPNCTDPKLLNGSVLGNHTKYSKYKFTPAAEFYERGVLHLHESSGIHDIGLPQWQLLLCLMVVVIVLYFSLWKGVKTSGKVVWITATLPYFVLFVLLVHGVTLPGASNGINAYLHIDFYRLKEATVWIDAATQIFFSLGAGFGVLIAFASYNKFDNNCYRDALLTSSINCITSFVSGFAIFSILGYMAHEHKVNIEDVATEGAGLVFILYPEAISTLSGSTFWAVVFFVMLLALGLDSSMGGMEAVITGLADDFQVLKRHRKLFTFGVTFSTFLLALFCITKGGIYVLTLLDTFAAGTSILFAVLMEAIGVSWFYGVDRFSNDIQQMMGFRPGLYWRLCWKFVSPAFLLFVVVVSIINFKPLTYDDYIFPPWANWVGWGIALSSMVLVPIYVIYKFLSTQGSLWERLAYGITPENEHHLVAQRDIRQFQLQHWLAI
Histamine H2 receptor, sequence (P25021 whole entry): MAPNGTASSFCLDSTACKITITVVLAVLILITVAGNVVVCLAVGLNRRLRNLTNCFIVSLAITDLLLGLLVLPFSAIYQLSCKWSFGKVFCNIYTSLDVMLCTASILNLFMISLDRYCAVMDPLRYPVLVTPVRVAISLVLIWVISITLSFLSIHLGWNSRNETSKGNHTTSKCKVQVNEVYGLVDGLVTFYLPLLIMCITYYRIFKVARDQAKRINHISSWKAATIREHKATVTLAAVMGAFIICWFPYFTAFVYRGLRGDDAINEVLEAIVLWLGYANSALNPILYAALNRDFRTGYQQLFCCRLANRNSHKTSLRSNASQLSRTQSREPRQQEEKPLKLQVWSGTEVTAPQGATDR
Melanocortin receptor 3, sequence (P41968 whole entry): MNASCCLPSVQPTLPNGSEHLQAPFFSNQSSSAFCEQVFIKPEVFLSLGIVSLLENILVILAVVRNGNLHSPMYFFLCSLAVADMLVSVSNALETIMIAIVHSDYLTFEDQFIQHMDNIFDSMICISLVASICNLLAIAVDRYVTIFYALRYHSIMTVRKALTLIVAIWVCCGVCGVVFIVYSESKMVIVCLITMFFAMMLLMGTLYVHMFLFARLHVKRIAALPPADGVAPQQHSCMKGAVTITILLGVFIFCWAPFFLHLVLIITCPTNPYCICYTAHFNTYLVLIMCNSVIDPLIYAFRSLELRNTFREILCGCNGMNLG

SMILES | AC50 [1] | AC50 [2] | AC50 [3] | AC50 [4] | AC50 [5] | AC50 [6] | AC50 [7] | AC50 [8] | AC50 [9] | AC50 [10] | AC50 [11] | AC50 [12] | AC50 [13] | AC50 [14]
O=C(Nc1cccc2c(=O)cc(-c3nnn[nH]3)oc12)c1ccc(OCCCCc2ccccc2)cc1 | > 30 µM |  |  |  |  |  |  |  |  |  |  |  |  | 
CC(=N)N1CC[C@H](SC2=C(C(=O)O)N3C(=O)[C@H]([C@@H](C)O)[C@H]3C2)C1 |  | > 300 µM | > 300 µM | 68 µM | > 300 µM | > 300 µM | > 300 µM | > 300 µM | > 300 µM | > 300 µM |  |  |  | 
O=S(=O)(O)CCS [2-MERCAPTOETHANESULFONIC ACID] | > 30 µM |  |  |  |  |  |  |  |  |  |  |  |  | 
O=C1CN2Cc3c(ccc(Cl)c3Cl)N=C2N1 [ANAGRELIDE] |  | > 30 µM | > 10 µM | > 10 µM | > 30 µM |  | > 30 µM | > 30 µM | > 30 µM |  | > 10 µM | > 30 µM | > 10 µM | > 10 µM
C=C(C)[C@@H]1CCC(C)=C[C@H]1c1c(O)cc(CCCCC)cc1O [CANNABIDIOL] |  |  | 2.28 µM | > 30 µM | > 30 µM | > 10 µM | > 10 µM | 17.3 µM | 25 µM | 25 µM |  |  |  | 
CO/N=C(\C(=O)N[C@@H]1C(=O)N2C(C(=O)O)=C(COC(N)=O)CS[C@H]12)c1ccco1 [CEFUROXIME] |  | > 30 µM | > 30 µM | > 30 µM | > 30 µM | > 30 µM | > 30 µM | > 30 µM | > 30 µM | > 30 µM |  | > 30 µM | > 30 µM | > 30 µM
O=C(O)CCCc1ccc(N(CCCl)CCCl)cc1 [CHLORAMBUCIL] | > 30 µM |  |  |  |  |  |  |  |  |  |  |  |  | 
[H]/N=C(\N/C(=N/[H])NCCCCCCNC(=N)NC(=N)Nc1ccc(Cl)cc1)Nc1ccc(Cl)cc1 [CHLORHEXIDINE] |  | > 30 µM | 1.26 µM | > 10 µM | 5.4 µM | 8.3 µM | > 30 µM | 0.409 µM | 0.49 µM | 11 µM | > 10 µM |  | > 10 µM | 3.99 µM
CNCC[C@H](Oc1cccc2ccccc12)c1cccs1 [DULOXETINE] |  | > 30 µM | 12 µM | > 10 µM | 13 µM |  | 8.9 µM |  | 22.7 µM | > 30 µM | > 10 µM | > 30 µM | > 10 µM | 
Cn1c(=O)c2c(ncn2CC(O)CO)n(C)c1=O (configuration not stated) [DYPHYLLINE] | > 30 µM |  |  |  |  |  |  |  |  |  |  |  |  | 
CC1(C)O[C@@H]2C[C@H]3[C@@H]4CCC5=CC(=O)CC[C@]5(C)[C@@]4(F)[C@@H](O)C[C@]3(C)[C@]2(C(=O)CCl)O1 [HALCINONIDE] | > 30 µM |  |  |  |  |  |  |  |  |  |  |  |  | 
C[C@H]1Oc2cc(cnc2N)-c2c(nn(C)c2C#N)CN(C)C(=O)c2ccc(F)cc21 [LORLATINIB] |  | > 30 µM | 14 µM | > 30 µM | > 30 µM | 6.2 µM | > 30 µM | > 30 µM | > 30 µM | > 30 µM |  |  |  | 
CCOc1cc(N)c(Cl)cc1C(=O)NCC1CN(Cc2ccc(F)cc2)CCO1 (configuration not stated) [MOSAPRIDE] | > 30 µM |  |  |  |  |  |  |  |  |  |  |  |  | 
CN1CCC[C@H]1c1cccnc1 [NICOTINE] | > 30 µM |  |  |  |  |  |  |  |  |  |  |  |  | 
C#C[C@]1(O)CC[C@H]2[C@@H]3CCC4=C(CCC(=O)C4)[C@H]3CC[C@@]21C [NORETHYNODREL] | 17.4 µM |  |  |  |  |  |  |  |  |  |  |  |  | 
CC(C)C[C@H](CN)CC(=O)O [PREGABALIN] |  | > 30 µM | > 30 µM | > 30 µM | > 30 µM | > 30 µM | > 30 µM | > 30 µM | > 30 µM | > 30 µM | > 30 µM | > 30 µM | > 10 µM | > 30 µM
CCOc1cc(CC(=O)N[C@@H](CC(C)C)c2ccccc2N2CCCCC2)ccc1C(=O)O [REPAGLINIDE] |  | > 30 µM | > 30 µM | > 30 µM | > 30 µM | > 30 µM | > 30 µM | > 30 µM | > 30 µM | > 30 µM |  |  |  | 
O=C(Nc1c(Cl)cncc1Cl)c1ccc(OC(F)F)c(OCC2CC2)c1 [ROFLUMILAST] |  | > 30 µM | > 30 µM | > 30 µM | > 30 µM |  | > 30 µM | > 30 µM | > 30 µM | > 30 µM |  | > 30 µM | > 30 µM | > 30 µM
CCCN(CCC)CCc1cccc2c1CC(=O)N2 [ROPINIROLE] |  | > 30 µM |  | > 30 µM | > 30 µM | > 30 µM | > 30 µM | > 30 µM | > 30 µM | > 30 µM | > 10 µM | > 30 µM | > 10 µM | 
CCCN(CCc1cccs1)[C@H]1CCc2c(O)cccc2C1 [ROTIGOTINE] |  | > 30 µM |  | 25 µM | > 30 µM | 0.67 µM | > 10 µM | 5.1 µM | > 30 µM | > 30 µM |  |  |  | 
CC(C)N(CCCCOCC(=O)NS(C)(=O)=O)c1cnc(-c2ccccc2)c(-c2ccccc2)n1 [SELEXIPAG] |  | > 30 µM | 12 µM | > 30 µM | > 30 µM | 24 µM | > 30 µM | > 30 µM | > 30 µM | > 30 µM | > 30 µM | > 10 µM | > 30 µM | 29 µM
Cc1cc(CC(=O)O)n(C)c1C(=O)c1ccc(Cl)cc1 [ZOMEPIRAC] |  | > 30 µM | > 30 µM | > 30 µM | > 30 µM | > 30 µM | > 30 µM | > 30 µM | > 30 µM | > 30 µM | > 30 µM | > 30 µM | > 30 µM | > 30 µM
